For 40 molecules, IC50 results are on record in patent US10253018B2, “Apoptosis signal-regulating kinase 1 inhibitors and methods of use thereof” (ENANTA PHARMACEUTICALS, INC., priority 2017, dated 2019).

Each structure is given as a SMILES string.

A word on the IC50: it is the concentration at which inhibition is half-maximal. A low value points to inhibition by little substance.

Sequence of ASK1 (Q99683 whole entry): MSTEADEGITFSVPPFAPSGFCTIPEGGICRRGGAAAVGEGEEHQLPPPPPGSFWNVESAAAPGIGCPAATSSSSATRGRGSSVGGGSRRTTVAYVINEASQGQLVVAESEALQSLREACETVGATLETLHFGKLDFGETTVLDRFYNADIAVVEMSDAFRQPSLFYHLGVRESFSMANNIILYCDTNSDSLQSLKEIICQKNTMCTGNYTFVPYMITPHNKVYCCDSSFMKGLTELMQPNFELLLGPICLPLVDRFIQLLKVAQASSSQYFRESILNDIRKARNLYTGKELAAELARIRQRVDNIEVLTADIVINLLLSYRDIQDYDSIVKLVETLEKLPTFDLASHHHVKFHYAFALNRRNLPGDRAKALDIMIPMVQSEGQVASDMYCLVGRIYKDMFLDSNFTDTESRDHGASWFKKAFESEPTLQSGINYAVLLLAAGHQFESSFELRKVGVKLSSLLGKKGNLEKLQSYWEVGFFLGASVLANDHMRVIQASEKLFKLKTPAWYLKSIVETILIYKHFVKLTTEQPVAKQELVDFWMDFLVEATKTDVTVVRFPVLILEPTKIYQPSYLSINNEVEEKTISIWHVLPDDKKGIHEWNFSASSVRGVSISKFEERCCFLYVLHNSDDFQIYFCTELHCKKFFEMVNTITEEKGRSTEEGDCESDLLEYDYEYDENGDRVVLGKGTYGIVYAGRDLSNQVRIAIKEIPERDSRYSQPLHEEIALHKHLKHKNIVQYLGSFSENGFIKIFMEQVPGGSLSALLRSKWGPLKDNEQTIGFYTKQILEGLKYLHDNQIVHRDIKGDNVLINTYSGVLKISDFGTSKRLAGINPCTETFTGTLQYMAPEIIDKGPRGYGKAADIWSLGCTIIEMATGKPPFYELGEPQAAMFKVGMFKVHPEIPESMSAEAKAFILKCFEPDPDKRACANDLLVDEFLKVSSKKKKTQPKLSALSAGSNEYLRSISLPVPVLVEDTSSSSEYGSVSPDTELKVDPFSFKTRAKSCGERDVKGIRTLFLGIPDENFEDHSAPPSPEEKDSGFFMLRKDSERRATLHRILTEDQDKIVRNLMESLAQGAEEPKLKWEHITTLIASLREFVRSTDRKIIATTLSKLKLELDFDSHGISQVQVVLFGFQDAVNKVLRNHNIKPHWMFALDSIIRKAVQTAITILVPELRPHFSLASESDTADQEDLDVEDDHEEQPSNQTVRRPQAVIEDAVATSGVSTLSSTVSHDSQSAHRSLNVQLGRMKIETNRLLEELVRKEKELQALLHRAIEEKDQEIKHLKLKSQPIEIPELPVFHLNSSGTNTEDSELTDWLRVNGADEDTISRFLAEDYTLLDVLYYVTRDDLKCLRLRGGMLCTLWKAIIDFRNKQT

In this experiment the target is ASK1 (Homo sapiens (Human), UniProt Q99683). In words: HTRF KinEASE Assay (TR-FRET), inhibition of ASK1. The class given is biochemical. To be noted: 5 nM ASK1 kinase, 1 uM STK3 peptide substrate, 100 uM ATP, 3 hours. From the text:
Assays HTRF® KinEASE™ Assay ASK1 was purchased from Thermofisher (Catalogue # PV4011), ATP was purchased from Sigma (Catalogue # A7699), HTRF® KinEASE™ Assay System was obtained from Cisbio (Bedford, Mass.). ½ Area plate was purchased from Perkin Elmer (Catalogue # #6005560). HTRF® KinEASE™-STK is a generic method for measuring serine/threonine kinase activities using a time-resolved fluorescence resonance energy transfer (TR-FRET) immunoassay. […] The STK3-antibody labeled with Eu^3+-Cryptate and 125 nM streptavidin-XL665 are mixed in a single addition with stop reagents provided by the Cisbio kit used to stop the kinase reaction. Fluorescence is detected using an Envision Multilabeled 2014 reader from PerkinElmer. The Fluorescence is measured at 615 nm (Cryptate) and 665 nm (XL665) and a ratio of 665 nm/615 nm is calculated for each well. The resulting TR-FRET is proportional to the phosphorylation level. Staurosporine was used as the positive control. IC50 was determined by XLfit 5.3.
On the technique in general: Time-resolved FRET reads energy transfer from a long-lived donor to a nearby acceptor.
Molecule `CCn1nccc1-c1ccc2cnc(C(=O)Nc3cccc(-c4nncn4C(C)C)n3)cc2c1` [Example 23] returned an IC50 of 10 to 100 nM.

With `CC(C)n1cnnc1-c1cccc(NC(=O)c2cc3ccccc3cc2F)n1` [Example 40], the IC50 lay within 100 to 1000 nM.

In turn, `CC(C)n1cnnc1-c1cccc(NC(=O)c2ccc3ccc(NC4CCCCC4)nc3c2)n1` [Example 28] yielded a 50% inhibitory concentration (IC50) of more than 1000 nM.

`CC(C)Oc1nc2cc(F)c(C(=O)Nc3cccc(-c4nncn4C(C)C)n3)cc2nc1OC(C)C` [Example 11] came in with an IC50 of 100 to 1000 nM.

Regarding `CC(C)CN(C)c1nc2cc(C(=O)Nc3cccc(-c4nncn4C(C)C)n3)c(F)cc2nc1OC(C)C` [Example 13], the IC50 is 100 to 1000 nM.

`CC(C)n1cnnc1-c1cccc(NC(=O)c2ccc3cc(N4CCOCC4)cnc3c2)n1` [Example 38] came in with an IC50 of 10 to 100 nM.

For the molecule `CC(C)n1cnnc1-c1cccc(NC(=O)c2ccc3cccnc3c2)n1` [Example 35], the IC50 was more than 1000 nM.

The molecule `CC(C)Nc1nc2cc(C(=O)Nc3cccc(-c4nnnn4C(C)C)n3)c(F)cc2nc1OC(C)C` [Example 14] had an IC50 of more than 1000 nM.

`COc1nc2cc(F)c(C(=O)Nc3cccc(-c4nncn4C(C)C)n3)cc2nc1N1CCCCC1` [Example 3] registered an IC50 of 10 to 100 nM.

For the molecule `CC(C)Nc1nc2cc(C(=O)Nc3cccc(-c4nnnn4[C@@H](C)CO)n3)c(F)cc2nc1OC(C)C` [Example 17], the IC50 was more than 1000 nM.

For the molecule `CC(C)Oc1nc2ccc(C(=O)Nc3cccc(-c4nncn4C(C)C)n3)cc2nc1N1CCOCC1` [Example 7], the 50% inhibitory concentration (IC50) lay within 100 to 1000 nM.

Take `CC(C)n1nnnc1-c1cccc(NC(=O)c2cc3ccccc3cc2F)n1` [Example 41]: the IC50 was more than 1000 nM.

The molecule `CCN(Cc1ccccc1)c1ccc2ccc(C(=O)Nc3cccc(-c4nncn4C(C)C)n3)cc2n1` [Example 31] gave an IC50 of more than 1000 nM.

Consider `CC(C)n1cnnc1-c1cccc(NC(=O)c2ccc3ccc(N(C)C)nc3c2)n1` [Example 25], for which the IC50 is more than 1000 nM.

In the case of `CC(C)n1cnnc1-c1cccc(NC(=O)c2cc3cc(-n4cnc(C5CC5)c4)ccc3cn2)n1` [Example 22], the IC50 is 1 to 10 nM.

On to `CC(C)n1cnnc1-c1cccc(NC(=O)c2cc3ccccc3cn2)n1` [Example 18], for which the IC50 was 1 to 10 nM.

Molecule `COc1nc2ccc(C(=O)Nc3cccc(-c4nncn4C(C)C)n3)cc2nc1NC(C)C` [Example 8] gave an IC50 of 100 to 1000 nM.

`CC(C)Oc1nc2cc(F)c(C(=O)Nc3cccc(-c4nnnn4C(C)C)n3)cc2nc1OC(C)C` [Example 10] registered an IC50 of more than 1000 nM.

The molecule `CC(C)Oc1nc2cc(F)c(C(=O)Nc3cccc(-c4nnnn4C(C)C)n3)cc2nc1N(C)C(C)C` [Example 9] returned an IC50 of more than 1000 nM.

`CC(C)n1cnnc1-c1cccc(NC(=O)c2ccc3ccc(N4CCN(C(C)(C)C)CC4)nc3c2)n1` [Example 27] displayed an IC50 of more than 1000 nM.

Molecule `CC(C)n1cnnc1-c1cccc(NC(=O)c2ccc3cc(-c4ccc(C(C)(C)C)cc4)cnc3c2)n1` [Example 37] had an IC50 of more than 1000 nM.

Turning to `CC(C)Nc1nc2cc(C(=O)Nc3cccc(-c4nncn4C(C)C)n3)ccc2nc1OC(C)C` [Example 4], the IC50 is 10 to 100 nM.

The molecule `CC(C)Nc1nc2cc(C(=O)Nc3cccc(-c4nncn4C(C)C)n3)c(F)cc2nc1OC(C)C` [Example 15] displayed an IC50 of 10 to 100 nM.

Molecule `CC(C)n1cnnc1-c1cccc(NC(=O)c2ccc3ccccc3c2)n1` [Example 39] registered an IC50 of 100 to 1000 nM.

In the case of `CC(C)n1cnnc1-c1cccc(NC(=O)c2ccc3ccc(N4CCCCC4)nc3c2)n1` [Example 26], the IC50 fell in the range of 10 to 100 nM.

`COc1nc2cc(F)c(C(=O)Nc3cccc(-c4nnnn4C(C)C)n3)cc2nc1N1CCCCC1` [Example 16] showed an IC50 of 100 to 1000 nM.

As for `CC(C)n1cnnc1-c1cccc(NC(=O)c2ccc3ccc(N4CCOCC4)nc3c2)n1` [Example 24], the IC50 lay in the range of 100 to 1000 nM.

In turn, `CC(C)n1nnnc1-c1cccc(NC(=O)c2cc3cc(Br)ccc3cn2)n1` [Example 20] gave an IC50 of more than 1000 nM.

For the molecule `CC(C)CN(C)c1nc2cc(C(=O)Nc3cccc(-c4nnnn4C(C)C)n3)c(F)cc2nc1OC(C)C` [Example 12], the IC50 was more than 1000 nM.

`CC(C)n1cnnc1-c1cccc(NC(=O)c2ccc3nccnc3c2)n1` [Example 1] yielded an IC50 of 100 to 1000 nM.

In the case of `COc1nc2ccc(C(=O)Nc3cccc(-c4nncn4C(C)C)n3)cc2nc1N1CCOCC1` [Example 2], the IC50 was 100 to 1000 nM.

Take `CC(C)n1cnnc1-c1cccc(NC(=O)c2ccc3ccc(N4CC5(COC5)C4)nc3c2)n1` [Example 29]: the IC50 was more than 1000 nM.

Regarding `CC(C)Oc1nc2ccc(C(=O)Nc3cccc(-c4nncn4C(C)C)n3)cc2nc1N1CCCCC1` [Example 6], the IC50 was more than 1000 nM.

For the molecule `CC(C)n1cnnc1-c1cccc(NC(=O)c2ccc3ccc(N4CC5CCC(C4)O5)nc3c2)n1` [Example 30], the IC50 fell in the range of 100 to 1000 nM.

As to `CC(C)n1cnnc1-c1cccc(NC(=O)c2cc3cc(N4CCCCC4)ccc3cn2)n1` [Example 21], the IC50 was 1 to 10 nM.

In the case of `CC(C)n1cnnc1-c1cccc(NC(=O)c2ccc3cc(Br)cnc3c2)n1` [Example 36], the IC50 is 100 to 1000 nM.

Take `CC(C)n1cnnc1-c1cccc(NC(=O)c2cc3cc(Br)ccc3cn2)n1` [Example 19, 6-bromo-N-(6-(4-isopropyl-4H-1,2,4-triazol-3-yl)pyridin-2-yl)isoquinoline-3-carboxamide]: the IC50 was in the range of 1 to 10 nM.

`CC(C)n1cnnc1-c1cccc(NC(=O)c2ccc3ccc(Cl)nc3c2)n1` [Example 34] displayed an IC50 of 100 to 1000 nM.

Molecule `COc1nc2ccc(C(=O)Nc3cccc(-c4nncn4C(C)C)n3)cc2nc1N1CCCCC1` [Example 5] yielded an IC50 of 100 to 1000 nM.

The molecule `COCCNc1ccc2ccc(C(=O)Nc3cccc(-c4nncn4C(C)C)n3)cc2n1` [Example 33] displayed an IC50 of 10 to 100 nM.
